In test [1] the target is T1, MIF-CD74 binding (biotinylated recombinant human MIF / immobilized CD74 ectodomain) (Homo sapiens, UniProt P14174).
T1 sequence (P14174 2-115 limits assumed): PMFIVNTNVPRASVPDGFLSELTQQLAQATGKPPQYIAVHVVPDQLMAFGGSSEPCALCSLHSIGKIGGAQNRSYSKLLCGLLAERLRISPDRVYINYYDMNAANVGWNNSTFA
In words: MIF-CD74 binding (capture) assay. The conditions noted are these: for IC50: Table 1, benzooxazolones B, inhibition of MIF-CD74 binding; for Capture % Max. Inhib.: Table 3, benzothiazolones, capture assay.
Protocol: This allows measurement of the inhibition or enhancement of the binding of MIF to its receptor induced by an addend.
Incubate at 4° C. overnight. Wash the plate 4 times with 250 μl/well TTBS and add 100 μl/well of superblock (Pierce, Ill.). Incubate at 4° C. overnight. Remove the superblock and add mixture of compound and biotin-labeled recombinant human MIF incubated at 4° C. overnight. (Each compound was pre-incubated at various concentrations with 2 ng/μl 0.2 μM biotin-MIF for 2 hours at room temperature in the dark). After washing the plate 4 times with 250 μl/well TTBS, 60 μl/well of Strepavidin-AP (R&D Systems) was added and incubated for 1 hr at room temperature in the dark. Wells were then washed as before and 60 μl/well of PNPP (Sigma) was added, allowing the color to develop in the dark at room temperature and then read at OD405 nm.

Test [2] concerns the target T2, Human MIF tautomerase activity (HPP) (Homo sapiens, UniProt P14174).
T2 construct: made in house
T2 sequence (P14174 2-115 limits assumed): T1 sequence (P14174 2-115 limits assumed)
The test is described as follows: HPP tautomerase assay. It counts as biochemical. The conditions noted are these: for Emax: read-out: HPP Max. Inhib.
Protocol: The HPP assay used was adapted to the microtiter plate format. […] Dilutions of the enzyme were prepared in 50 mM sodium phosphate buffer, 1 mM EDTA, pH 6.5. HPP was obtained from Aldrich. A stock solution of 60 mM HPP in ethanol is prepared and kept for maximally 4 hours on ice. The working solution (600 μM) of the substrate was prepared by diluting an aliquot of the stock solution with 50 mM sodium phosphate buffer, 1 mM EDTA, pH 6.5. […] Inhibitor and enzyme solutions were pipetted manually using an Eppendorf 12-channel pipette. Addition of substrate to start the reaction was performed with an Igel 96 pipetting station (OpalJena, Jena, Germany), which allows simultaneous addition of fluid to all 96 wells of the plates. Optical density (OD) was determined using a SPECTRAmax 250 reader (Molecular Devices). The reader was operated with the SoftmaxPro 2.6.1 software. Assay: Three wells of the microtiter plates were filled with buffer only, to allow for blanking. […] The last step was performed using the 96-channel pipetting device. The plate was then immediately (i.e. within a few seconds) transferred manually to the SPECTRAmax 250 reader and the optical density was determined (310 nm). From the data obtained, IC50 values were calculated using Excel® and XLfit® software.

Test [3] deals with MIF-dependent ERK1/2 phosphorylation. In words: MIF-dependent signal transduction in cells (ERK1/2 phosphorylation). The conditions noted are these: compared to isoxazoline-1. Type of test: cell-based. As to the method:
Two additional assays were performed on compounds according to the present invention. In the first, MIF-dependent signal transduction in cells as evidenced by a reduction in ERK1/2 phosphorylation and its inhibitory action is compared to the known small molecule MIF antagonist, isoxazoline-1 following the assay reported in Leng L., Metz C, Fang Y, Xu J, Donnelly S, Baugh J, Delonery T, Chen Y, Mitchell R A, and Bucala R. 2003. MIF Signal Transduction Initiated by Binding to CD74. J Exp Med 197, 1467-1476.

For another test, the system named is ovarian cancer cell line. The test is described as follows: Growth inhibition of an ovarian cancer cell line. It counts as cell-based. From the text: KSP inhibitor ARRY-520 is used as a substitute for Paclitaxel in Type I ovarian cancer cells. J Transl Med. 7:63.
The mark [4] stands for this setting: Table 1, MIF tautomerase activity, HPP substrate.

Where two headings read alike, the source gives them in different places.

`COc1cccc(Cn2c(=O)oc3ccc(CO)cc32)c1` [Compound 4, 5-hydroxymethyl-3-(3-methoxy-benzyl)-3H-benzooxazol-2-one]: the half-inhibitory concentration (IC50) in test [1] is 500 µM.

With `N#Cc1ccc2c(=O)n(-c3ccc(Cl)cc3)sc2c1` [Compound 37], the “Capture % Max. Inhib.” value in test [1] is 16%. In test [2] (setting [4]), `O=c1oc2ccc(F)cc2n1Cc1ccccc1` [Compound 8] showed an IC50 of 1 µM. As for `O=c1c2ccc(F)cc2sn1-c1cccc(CO)c1` [Compound 29], the “Capture % Max. Inhib.” value in test [1] was 8%. In test [2] (Table 3, benzothiazolones), this molecule gave a concentration for half-maximal inhibition (IC50) of 4.8 µM. With `O=C(c1cc2ccccc2o1)c1cc2ccccc2o1` [Compound 20, bisbenzofuran-2-yl methanone], half-maximal inhibition in test [2] (Table 2, other series) (IC50) was put at 510 µM.

As for `COc1cccc(Cn2c(=O)oc3ccc(C)cc32)c1` [Compound 5], in test [1], the IC50 worked out at 300 µM.

Take `O=c1c2ccc(Br)cc2sn1-c1ccc(Cl)cc1` [Compound 36]: the “Capture % Max. Inhib.” value in test [1] is given as 10%. `Cc1ccc2oc(=O)n(Cc3ccccc3)c2c1` [Compound 1] displayed an IC50 in test [2] (setting [4]) of 0.5 µM. For the molecule `O=c1c2cc(F)ccc2sn1-c1ccc(Cl)cc1` [Compound 30], the “Capture % Max. Inhib.” value in test [1] was found to be 7%. The molecule further gave an IC50 in test [2] (Table 3, benzothiazolones) of 2.8 µM. As to `O=c1oc2cc(O)ccc2n1Cc1ccccc1` [Compound 14], the half-maximal inhibitory concentration (IC50) in test [1] was over 1000 µM. Turning to `COc1cccc(Cn2c(=O)oc3ccc(OC)cc32)c1` [Compound 3, 5-methoxy-3-(3-methoxy-benzyl)-3H-benzooxazol-2-one], in test [1], the half-maximal inhibitory concentration (IC50) was 200 µM.

Take `N#Cc1nc2ccccc2n1Cc1ccccc1` [Compound 18, 1-Benzyl-1H-benzoimidazole-2-carbonitrile]: in test [2] (Table 2, other series), the Emax is 36%.

Take `O=c1c2cc(C(F)(F)F)ccc2sn1-c1ccc(Cl)cc1` [Compound 35]: the “Capture % Max. Inhib.” value in test [1] came out at 12%. In addition, the concentration for half-maximal inhibition (IC50) in test [2] (Table 3, benzothiazolones) is 8.5 µM. For the molecule `O=c1c2cc(F)ccc2sn1-c1cccc(O)c1` [Compound 32], the “Capture % Max. Inhib.” value in test [1] came to 13%. The same measure, in the same setting: the same measure for `COc1ccccc1-n1sc2ccc(Cl)cc2c1=O` [Compound 31]: 7%. For the molecule `c1ccc(Cn2c(-c3cscn3)nc3ccccc32)cc1` [Compound 17, 4-(1-benzyl-1H-benzo[d]imidazol-2-yl)thiazole], in test [2] (Table 2, other series), the Emax came to 40%. With `COc1ccccc1Cn1c(=O)oc2ccc(F)cc21` [Compound 10], in test [2] (Table 1, maximal inhibition of HPP tautomerase activity), the Emax came to 17%. With `CC(=O)OCc1cccc(-n2sc3cc(F)ccc3c2=O)c1` [Compound 33], the “Capture % Max. Inhib.” value in test [1] was determined as 12%. As to `Cc1ccc2oc(=O)n(Cc3cccc(O)c3)c2c1` [Compound 098], in test [3], the “inhibition of MIF-dependent signal transduction (reduction in ERK1/2 phosphorylation), in words” value is on record as “significant inhibitory action”. Besides, the “inhibition of growth of an ovarian cancer cell line, in words” value in the test on ovarian cancer cell line is on record as “significant inhibitory action”. Turning to `O=c1c2ccc(F)cc2sn1-c1ccc(Cl)cc1` [Compound 25], in test [1], the “activity in the capture assay (MIF-CD74 binding), in words” value (from here on “activity in the capture assay”) was “agonist behavior”. As to `COC(=O)CC1CC(c2ccc(O)cc2)=NO1` (centres unmarked) [ISO-1, reference compound], the “activity in the capture assay” value in test [1] is “inactive”. In test [2], the “activity in the HPP tautomerase assay, in words” value was “inactive”. `O=c1c2cc([N+](=O)[O-])ccc2sn1-c1ccc(Cl)cc1` [Compound 34]: the “Capture % Max. Inhib.” value in test [1] came out at 11%. As to `Ic1cc(-c2ccccc2)ncn1` [Compound 4-IPP, 4-iodo-6-phenylpyrimidine, reference compound], in test [1], the “activity in the capture assay” value was “inactive” and the IC50 was over 10000 µM.

By IC50 is commonly meant the concentration that gives 50% inhibition.

The values are drawn from patent US20120040974A1, “MIF MODULATORS” (YALE UNIVERSITY, priority 2008, published 2012).
